Results: BindingDB's records for patent US20240300941 (Zhuhai Yufan Biotechnologies, 2024)

The compounds below were run against Mitogen-activated protein kinase kinase kinase kinase 1 (Homo sapiens, UniProt Q92918) (assay: HPK1 ADP-Glo Enzyme Assay).
Sequence of Mitogen-activated protein kinase kinase kinase kinase 1 (Q92918 whole entry): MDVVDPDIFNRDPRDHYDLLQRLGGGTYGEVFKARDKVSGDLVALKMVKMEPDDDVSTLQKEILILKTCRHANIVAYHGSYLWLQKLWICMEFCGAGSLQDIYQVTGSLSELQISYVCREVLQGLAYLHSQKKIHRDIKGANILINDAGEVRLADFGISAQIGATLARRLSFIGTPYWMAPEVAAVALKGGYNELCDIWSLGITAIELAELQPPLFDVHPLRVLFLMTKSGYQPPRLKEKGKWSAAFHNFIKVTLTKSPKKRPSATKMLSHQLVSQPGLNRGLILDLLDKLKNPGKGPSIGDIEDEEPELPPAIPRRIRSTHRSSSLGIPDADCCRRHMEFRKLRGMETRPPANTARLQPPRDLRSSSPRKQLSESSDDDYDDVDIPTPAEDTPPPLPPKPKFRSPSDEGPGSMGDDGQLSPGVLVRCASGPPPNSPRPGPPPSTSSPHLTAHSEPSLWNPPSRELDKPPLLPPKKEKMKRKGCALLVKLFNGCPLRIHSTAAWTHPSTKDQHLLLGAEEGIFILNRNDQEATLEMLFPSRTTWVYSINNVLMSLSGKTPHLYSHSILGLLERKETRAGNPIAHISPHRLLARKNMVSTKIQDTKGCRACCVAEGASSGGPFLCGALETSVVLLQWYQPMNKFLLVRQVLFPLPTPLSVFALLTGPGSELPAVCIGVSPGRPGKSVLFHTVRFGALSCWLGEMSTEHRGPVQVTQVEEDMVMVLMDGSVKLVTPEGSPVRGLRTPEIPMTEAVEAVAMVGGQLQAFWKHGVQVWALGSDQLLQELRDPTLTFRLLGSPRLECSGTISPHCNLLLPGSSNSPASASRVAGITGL
Method: The buffer used in the enzyme assay contains 5 mM MOPS (pH=7.2), 2.5 mM β-Glycerol Phosphate, 0.4 mM EDTA, 1 mM EGTA, 0.05 mM DTT, 5 mM MgCl2. The compound was dissolved in 100% DMSO at the concentration was 10 mM. The initial concentration of the test was 5 uM, and ten data points were diluted by three-fold gradient, and each point was repeatedly measured twice. The HPK1 protein was purchased from Thermo (Cat. No. PV6355) and diluted to 2× stock solution at the concentration of 10 nM (the final concentration of the enzyme assay was 5 nM). 2.5 µl of 2×HPK1 protein was added to each well of the plate containing the test compound, centrifuged at 1000 rpm for 30 seconds, and then incubated at 25° C. for 15 minutes. MBP protein was purchased from Millipore (Cat. No. 13-110) and ATP was purchased from Sigma (Cat. No. A7699-5G) and the two were formulated into 2× working solutions at concentrations of 4 uM and 80 uM. Added 2.5 μl mixture of 2×MBP and ATP, centrifuged at 1000 rpm for 30 seconds, then incubated at 25° C. for 90 minutes. Then added 5 ul of ADP-Glo (Promega, Cat. No. V9102) to the assay plate and incubated […] at 25° C. for 60 minutes. Finally, 10 ul of the kinase assay reagent (Promega, Cat. No. V9102) was added to the assay plate, centrifuged at 1000 rpm for 30 seconds at 25° C. for 60 minutes, and the […] was determined.
CN1CCC(c2ncc(-c3cnc(N)c(OCc4cccc(C#CC(C)(C)O)c4)c3)s2)CC1 [US20240300941, Compound A3] showed an IC50 of less than 100 nM. CN1CCC(c2ncc(-c3cnc(N)c(OC(C)(C)c4ccncc4)c3)s2)CC1 [US20240300941, Compound A6] showed an IC50 greater than 1000 nM. Nc1ncc(-c2cnc(C3CCNCC3)s2)cc1OCc1ccncc1 [US20240300941, Compound A7] was tested, and the IC50 was less than 100 nM. In the case of CN1CCC(c2ncc(-c3cnc(N)c(OCc4ccnc(Cl)c4)c3)s2)CC1 [US20240300941, Compound A8], the IC50 is reported as less than 100 nM. COc1ccc(COc2cc(-c3cnc(C4CCN(C)CC4)s3)cnc2N)cc1 [US20240300941, Compound A9] showed an IC50 greater than 1000 nM. CN1CCC(c2ncc(-c3cnc(N)c(OCc4ccnc(C#CC(C)(C)O)c4)c3)s2)CC1 [US20240300941, Compound A10] showed an IC50 of less than 100 nM. CN1CCN(c2ncc(-c3cnc(N)c(OCc4ccncc4)c3)s2)CC1 [US20240300941, Compound A12] gave an IC50 of less than 100 nM. With Nc1ncc(-c2cnc(C3CCOCC3)s2)cc1OCc1ccncc1 [US20240300941, Compound A13] the IC50 was less than 100 nM. For CN1CCC(n2cc(-c3cnc(N)c(OCc4ccncc4)n3)c(N)n2)CC1 [US20240300941, Compound A14], the IC50 was 100 to 1000 nM. CN1CCC(c2ncc(-c3cnc(N)c(OCc4cccc(C#CC5(O)CCCC5)c4)c3)s2)CC1 [US20240300941, Compound A34] gave an IC50 of less than 100 nM. With CC(C)c1ncc(-c2cnc(N)c(OCc3ccncc3)c2)s1 [US20240300941, Compound A36] the IC50 was less than 100 nM. Nc1ncc(-c2cnc(C3CCCCC3)s2)cc1OCc1ccncc1 [US20240300941, Compound A37] was tested, and the IC50 was less than 100 nM. Compound CN1CCC(c2ncc(-c3cnc(N)c(OCc4cccc(C#CC5(O)CCCCC5)c4)c3)s2)CC1 [US20240300941, Compound A38] has an IC50 greater than 1000 nM. Compound CN1CCC(c2ncc(-c3cnc(N)c(OCc4cccc(C#CC5(O)CCC5)c4)c3)s2)CC1 [US20240300941, Compound A40] has an IC50 of less than 100 nM. In the case of CC(C)c1ncc(-c2cnc(N)c(OCc3cccc(C#CC(C)(C)O)c3)c2)s1 [US20240300941, Compound A41], the IC50 is reported as less than 100 nM. Work on CC(C)(O)C#Cc1cccc(COc2cc(-c3cnc(C4CCNCC4)s3)cnc2N)c1 [US20240300941, Compound A42] yielded an IC50 of less than 100 nM. Work on Cc1nc(C2CCN(C)CC2)sc1-c1cnc(N)c(OCc2cccc(C#CC(C)(C)O)c2)c1 [US20240300941, Compound A62] yielded an IC50 of 100 to 1000 nM.
